Laboratory results reported in PubChem BioAssay (NCI).
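48-hour exposure; five concentrations; linearly interpolated endpoints. At the TGI there is no net growth.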

Legend:
Test in all cases: growth of human tumour cells (NCI), 48 h
SF-295 CNS = system: SF-295 CNS
U251 CNS = system: U251 CNS
MDA-N = system: MDA-N
EKVX NSCLC = system: EKVX NSCLC
UO-31 renal = system: UO-31 renal
OVCAR-4 ovarian = system: OVCAR-4 ovarian
SF-539 CNS = system: SF-539 CNS
HCT-116 colon = system: HCT-116 colon
NCI-H226 lung = system: NCI-H226 lung
SK-MEL-5 melanoma = system: SK-MEL-5 melanoma

In the case of `CCOC(=O)/C=C(/C(=O)OCC)n1ccc(=O)n(Cc2cn(CCCCOC(C)=O)nn2)c1=O`, the TGI (SF-295 CNS) is reported as over 100 µM, the TGI (U251 CNS) is reported as over 100 µM and the TGI (MDA-N) is reported as over 100 µM. For the same molecule, the TGI (EKVX NSCLC) was over 100 µM, the TGI (UO-31 renal) was over 100 µM and the TGI (OVCAR-4 ovarian) was over 100 µM. The TGI (SF-539 CNS) was over 100 µM, the TGI (HCT-116 colon) was over 100 µM and the TGI (NCI-H226 lung) was over 100 µM. For the same molecule, the TGI (SK-MEL-5 melanoma) was over 100 µM.
With `CCCCC/C=C\C=C\CCCCCCCCC(=O)OC` the TGI (SF-295 CNS) was over 100 µM, the TGI (U251 CNS) was over 100 µM and the TGI (MDA-N) was over 100 µM. For the same molecule, the TGI (EKVX NSCLC) was over 100 µM, the TGI (UO-31 renal) was 31.3 µM and the TGI (OVCAR-4 ovarian) was over 100 µM. For the same molecule, the TGI (SF-539 CNS) was over 100 µM, the TGI (HCT-116 colon) was over 100 µM and the TGI (NCI-H226 lung) was over 100 µM. It also gave a TGI (SK-MEL-5 melanoma) of over 100 µM.
With `Cc1ccc(NC(=O)c2cccc(OP(=O)(Nc3ccc(C)cc3)Nc3ccc(C)cc3)c2)cc1` the TGI (SF-295 CNS) was over 100 µM, the TGI (U251 CNS) was over 100 µM and the TGI (MDA-N) was 21.7 µM. The TGI (EKVX NSCLC) was over 100 µM, the TGI (UO-31 renal) was 45.3 µM and the TGI (OVCAR-4 ovarian) was 61.9 µM. For the same molecule, the TGI (SF-539 CNS) was over 100 µM, the TGI (HCT-116 colon) was 80.8 µM and the TGI (NCI-H226 lung) was 63.6 µM. It also gave a TGI (SK-MEL-5 melanoma) of over 100 µM.
Molecule `Cc1cn(C2CC(O)C(Cn3nncc3Cn3cnc4c(N)ncnc43)O2)c(=O)[nH]c1=O` (stereo not given) has a TGI (SF-295 CNS) of over 100 µM, a TGI (U251 CNS) of over 100 µM and a TGI (MDA-N) of over 100 µM. It also gave a TGI (EKVX NSCLC) of over 100 µM, a TGI (UO-31 renal) of over 100 µM and a TGI (OVCAR-4 ovarian) of over 100 µM. It also gave a TGI (SF-539 CNS) of over 100 µM, a TGI (HCT-116 colon) of over 100 µM and a TGI (NCI-H226 lung) of over 100 µM. It also gave a TGI (SK-MEL-5 melanoma) of over 100 µM.
`O=[N+]([O-])C(C(Cl)=C(Cl)Cl)=C(N1CCCCC1)N1CCCCC1` showed a TGI (SF-295 CNS) of over 100 µM, a TGI (U251 CNS) of over 100 µM and a TGI (MDA-N) of over 100 µM. The TGI (EKVX NSCLC) was over 100 µM, the TGI (UO-31 renal) was over 100 µM and the TGI (OVCAR-4 ovarian) was over 100 µM. It also gave a TGI (SF-539 CNS) of over 100 µM, a TGI (HCT-116 colon) of over 100 µM and a TGI (NCI-H226 lung) of over 100 µM. The TGI (SK-MEL-5 melanoma) was over 100 µM.
In the case of `Cn1c2ncccc2n2c(=O)cc(O)cc12`, the TGI (SF-295 CNS) is reported as over 100 µM, the TGI (U251 CNS) is reported as over 100 µM and the TGI (MDA-N) is reported as over 100 µM. It also gave a TGI (EKVX NSCLC) of over 100 µM, a TGI (UO-31 renal) of over 100 µM and a TGI (OVCAR-4 ovarian) of over 100 µM. It also gave a TGI (SF-539 CNS) of over 100 µM, a TGI (HCT-116 colon) of over 100 µM and a TGI (NCI-H226 lung) of over 100 µM. It also gave a TGI (SK-MEL-5 melanoma) of over 100 µM.
Molecule `O=C1CC(n2ccnc2)c2c(Cl)sc(Cl)c21` (stereo not given) has a TGI (SF-295 CNS) of over 78.1 µM, a TGI (U251 CNS) of 35.6 µM and a TGI (MDA-N) of 50.4 µM. For the same molecule, the TGI (EKVX NSCLC) was 38.7 µM, the TGI (UO-31 renal) was 27 µM and the TGI (OVCAR-4 ovarian) was 42.3 µM. The TGI (SF-539 CNS) was 35.4 µM, the TGI (HCT-116 colon) was 29.5 µM and the TGI (NCI-H226 lung) was 77.1 µM. The TGI (SK-MEL-5 melanoma) was 41.2 µM.
`NC(=O)C1=C(O)[C@@]2(O)C(=O)C3=C(O)c4c(O)cccc4CC3C[C@H]2CC1=O` (stereo not given in full) was tested, and the TGI (SF-295 CNS) was 13.5 µM, the TGI (U251 CNS) was 12.8 µM and the TGI (MDA-N) was 41.2 µM. It also gave a TGI (EKVX NSCLC) of 9.23 µM, a TGI (UO-31 renal) of 10.5 µM and a TGI (OVCAR-4 ovarian) of over 85.1 µM. The TGI (SF-539 CNS) was 13.4 µM, the TGI (HCT-116 colon) was 12 µM and the TGI (NCI-H226 lung) was 8.43 µM. For the same molecule, the TGI (SK-MEL-5 melanoma) was 3.67 µM.
`O=C(Nc1ccccc1)OCCN=c1c2ccccc2ccc2ccccc12` showed a TGI (SF-295 CNS) of 39 µM, a TGI (U251 CNS) of 69.9 µM and a TGI (MDA-N) of 39 µM. The TGI (EKVX NSCLC) was 92.4 µM, the TGI (UO-31 renal) was 39.9 µM and the TGI (OVCAR-4 ovarian) was over 100 µM. It also gave a TGI (SF-539 CNS) of 37 µM, a TGI (HCT-116 colon) of 35.9 µM and a TGI (NCI-H226 lung) of 57.1 µM. It also gave a TGI (SK-MEL-5 melanoma) of 31.2 µM.
For `CC/C(Cl)=N\OC(=O)Nc1ccc(F)c(Cl)c1`, the TGI (SF-295 CNS) was 33.1 µM, the TGI (U251 CNS) was 33.9 µM and the TGI (MDA-N) was 33.4 µM. The TGI (EKVX NSCLC) was 32.9 µM, the TGI (UO-31 renal) was 32.3 µM and the TGI (OVCAR-4 ovarian) was 31.1 µM. The TGI (SF-539 CNS) was 37.3 µM, the TGI (HCT-116 colon) was 35.3 µM and the TGI (NCI-H226 lung) was 51.3 µM. The TGI (SK-MEL-5 melanoma) was 29 µM.
`CCOC(=O)c1c2ccccc2n2c(=O)n(-c3ccc(OC)cc3)nnc12` was tested, and the TGI (SF-295 CNS) was over 62.5 µM, the TGI (U251 CNS) was over 31.6 µM and the TGI (MDA-N) was over 100 µM. It also gave a TGI (EKVX NSCLC) of over 100 µM, a TGI (UO-31 renal) of over 100 µM and a TGI (OVCAR-4 ovarian) of over 64 µM. It also gave a TGI (SF-539 CNS) of 45.6 µM, a TGI (HCT-116 colon) of over 100 µM and a TGI (NCI-H226 lung) of 87.9 µM. The TGI (SK-MEL-5 melanoma) was over 100 µM.
In the case of `COc1ccc(/C=C2/SC(=Nc3ccccc3)N(NC(=O)Cc3ccccc3)C2=O)cc1`, the TGI (SF-295 CNS) is reported as over 100 µM, the TGI (U251 CNS) is reported as over 100 µM and the TGI (MDA-N) is reported as over 100 µM. For the same molecule, the TGI (EKVX NSCLC) was over 100 µM, the TGI (UO-31 renal) was over 100 µM and the TGI (OVCAR-4 ovarian) was over 100 µM. The TGI (SF-539 CNS) was over 100 µM, the TGI (HCT-116 colon) was over 100 µM and the TGI (NCI-H226 lung) was over 100 µM. For the same molecule, the TGI (SK-MEL-5 melanoma) was over 100 µM.
For `Cc1nc(C)c(N2CCN(Cc3ccccc3)CC2)c(=O)[nH]1`, the TGI (SF-295 CNS) was over 100 µM, the TGI (U251 CNS) was over 100 µM and the TGI (MDA-N) was over 100 µM. The TGI (EKVX NSCLC) was over 100 µM, the TGI (UO-31 renal) was over 100 µM and the TGI (OVCAR-4 ovarian) was over 100 µM. For the same molecule, the TGI (SF-539 CNS) was over 100 µM, the TGI (HCT-116 colon) was over 100 µM and the TGI (NCI-H226 lung) was over 100 µM. The TGI (SK-MEL-5 melanoma) was over 100 µM.
`O=C1c2ccccc2C(=O)c2c1oc1cc(O)c(Cl)cc21` was tested, and the TGI (SF-295 CNS) was 9.46 µM, the TGI (U251 CNS) was 22.3 µM and the TGI (MDA-N) was 3.35 µM. For the same molecule, the TGI (EKVX NSCLC) was 29.6 µM, the TGI (UO-31 renal) was 26.6 µM and the TGI (OVCAR-4 ovarian) was 23.4 µM. It also gave a TGI (SF-539 CNS) of 16.1 µM, a TGI (HCT-116 colon) of 15.1 µM and a TGI (NCI-H226 lung) of 34.3 µM. It also gave a TGI (SK-MEL-5 melanoma) of 1.58 µM.
Molecule `N#CCCC1(CCC#N)S(=O)(=O)OCCOS1(=O)=O` has a TGI (SF-295 CNS) of over 100 µM, a TGI (U251 CNS) of over 100 µM and a TGI (MDA-N) of over 100 µM. The TGI (EKVX NSCLC) was over 100 µM, the TGI (UO-31 renal) was over 100 µM and the TGI (OVCAR-4 ovarian) was over 100 µM. It also gave a TGI (SF-539 CNS) of 31.1 µM, a TGI (HCT-116 colon) of over 100 µM and a TGI (NCI-H226 lung) of over 100 µM. The TGI (SK-MEL-5 melanoma) was over 100 µM.
`N#Cc1c(C#N)c(SSc2c(C#N)c(C#N)c(N)n2-c2cccc3ccccc23)n(-c2cccc3ccccc23)c1N` gave a TGI (SF-295 CNS) of 38.9 µM, a TGI (U251 CNS) of 40 µM and a TGI (MDA-N) of 12.4 µM. The TGI (EKVX NSCLC) was 10.1 µM, the TGI (UO-31 renal) was 6.02 µM and the TGI (OVCAR-4 ovarian) was 41.9 µM. The TGI (SF-539 CNS) was 35.7 µM, the TGI (HCT-116 colon) was 14.1 µM and the TGI (NCI-H226 lung) was 56.3 µM. The TGI (SK-MEL-5 melanoma) was 41.8 µM.
